Test [1] deals with T1, Estrogen receptor (Homo sapiens) (UniProt P03372).
T1 sequence (whole entry): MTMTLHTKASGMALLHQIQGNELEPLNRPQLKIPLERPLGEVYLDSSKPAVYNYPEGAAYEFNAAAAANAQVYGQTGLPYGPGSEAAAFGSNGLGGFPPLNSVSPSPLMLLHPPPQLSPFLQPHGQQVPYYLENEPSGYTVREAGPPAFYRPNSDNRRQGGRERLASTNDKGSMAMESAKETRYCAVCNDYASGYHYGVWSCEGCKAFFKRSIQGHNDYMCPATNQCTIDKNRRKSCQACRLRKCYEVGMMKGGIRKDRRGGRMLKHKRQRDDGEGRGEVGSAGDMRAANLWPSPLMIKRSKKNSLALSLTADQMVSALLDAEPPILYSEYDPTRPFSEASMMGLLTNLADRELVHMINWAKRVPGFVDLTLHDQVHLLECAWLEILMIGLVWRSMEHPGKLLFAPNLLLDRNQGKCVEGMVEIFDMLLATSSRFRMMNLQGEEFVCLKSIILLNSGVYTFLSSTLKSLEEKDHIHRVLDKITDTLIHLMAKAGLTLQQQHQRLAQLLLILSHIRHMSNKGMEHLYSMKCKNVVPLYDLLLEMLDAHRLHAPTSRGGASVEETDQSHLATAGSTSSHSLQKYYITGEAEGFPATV
Briefly: Displacement of [3H]estradiol from full-length human estrogen receptor alpha by radiometric assay relative to estradiol. In general terms: Displacement assays read how much labelled ligand stays bound in the presence of the test substance.

The target in test [2] is Estrogen receptor beta (Homo sapiens) (UniProt Q92731). In words: Displacement of [3H]estradiol from full-length human estrogen receptor beta by radiometric assay relative to estradiol.
Sequence of Estrogen receptor beta (Homo sapiens) (Q92731 whole entry): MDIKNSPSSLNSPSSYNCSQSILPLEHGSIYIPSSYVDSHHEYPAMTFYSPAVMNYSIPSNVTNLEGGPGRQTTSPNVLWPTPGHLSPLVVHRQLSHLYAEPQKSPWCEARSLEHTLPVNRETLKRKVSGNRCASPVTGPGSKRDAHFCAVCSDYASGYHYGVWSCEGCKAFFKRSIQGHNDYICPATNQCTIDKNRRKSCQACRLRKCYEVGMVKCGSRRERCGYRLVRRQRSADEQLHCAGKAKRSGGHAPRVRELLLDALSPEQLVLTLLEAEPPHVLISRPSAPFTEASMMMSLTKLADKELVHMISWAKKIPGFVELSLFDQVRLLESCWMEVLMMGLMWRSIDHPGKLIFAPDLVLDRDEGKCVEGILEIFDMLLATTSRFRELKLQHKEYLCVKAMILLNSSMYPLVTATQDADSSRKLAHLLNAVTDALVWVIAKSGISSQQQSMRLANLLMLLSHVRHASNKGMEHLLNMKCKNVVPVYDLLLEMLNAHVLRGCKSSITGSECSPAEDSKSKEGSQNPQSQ

In the case of `C[C@]12CC[C@@H]3c4ccc(O)cc4CC[C@H]3[C@@H]1CC[C@@]2(O)C#Cc1ccc(OCCCOCCCOCCCOc2ccc(C#C[C@]3(O)CC[C@H]4[C@@H]5CCc6cc(O)ccc6[C@H]5CC[C@@]43C)cc2)cc1`, the RBA amounted to 2.1% in test [1] and 0.53% in test [2].

`C[C@]12CC[C@@H]3c4ccc(O)cc4CC[C@H]3[C@@H]1CC[C@@]2(O)C#Cc1ccc(OCCCCOCCCCOCCCCOc2ccc(C#C[C@]3(O)CC[C@H]4[C@@H]5CCc6cc(O)ccc6[C@H]5CC[C@@]43C)cc2)cc1`: the results for the RBA in test [1] and in test [2] were 4.5% and 1.5%, respectively.

With `C[C@]12CC[C@@H]3c4ccc(O)cc4CC[C@H]3[C@@H]1CC[C@@]2(O)C#Cc1ccc(OCCCCOCCCCOCCCCOCCCCOCCCOc2ccc(C#C[C@]3(O)CC[C@H]4[C@@H]5CCc6cc(O)ccc6[C@H]5CC[C@@]43C)cc2)cc1`, the RBA in test [1] worked out at 1.6%; in test [2], 0.22%.

On to `C[C@]12CC[C@@H]3c4ccc(O)cc4CC[C@H]3[C@@H]1CC[C@@]2(O)C#Cc1ccc(CNCCOCCOCCOCCOCCOCCNCc2ccc(C#C[C@]3(O)CC[C@H]4[C@@H]5CCc6cc(O)ccc6[C@H]5CC[C@@]43C)cc2)cc1`, for which the RBA in test [1] turned out to be 6.8%; in test [2] it was 3.6%.

On to `C[C@]12CC[C@@H]3c4ccc(O)cc4CC[C@H]3[C@@H]1CC[C@@]2(O)C#Cc1ccc(OCCCCOCCCCOc2ccc(C#C[C@]3(O)CC[C@H]4[C@@H]5CCc6cc(O)ccc6[C@H]5CC[C@@]43C)cc2)cc1`, for which the values for the RBA in test [1] and in test [2] were 1.8% and 0.82%, respectively.

`C[C@]12CC[C@@H]3c4ccc(O)cc4CC[C@H]3[C@@H]1CC[C@@]2(O)C#Cc1ccc(OCCCOCCCOc2ccc(C#C[C@]3(O)CC[C@H]4[C@@H]5CCc6cc(O)ccc6[C@H]5CC[C@@]43C)cc2)cc1`: the RBA stood at 0.9% in test [1] and 0.38% in test [2].

Take `C[C@]12CC[C@@H]3c4ccc(O)cc4CC[C@H]3[C@@H]1CC[C@@]2(O)C#Cc1ccc(OCCOCCOCCOCCOCCOCCOc2ccc(C#C[C@]3(O)CC[C@H]4[C@@H]5CCc6cc(O)ccc6[C@H]5CC[C@@]43C)cc2)cc1`: the RBA in test [1] was 1.2%; in test [2], 0.68%.

As to `C[C@]12CC[C@@H]3c4ccc(O)cc4CC[C@H]3[C@@H]1CC[C@@]2(O)C#Cc1ccc(OCCCCOCCCCOCCCCOCCCCOc2ccc(C#C[C@]3(O)CC[C@H]4[C@@H]5CCc6cc(O)ccc6[C@H]5CC[C@@]43C)cc2)cc1`, the RBA in test [1] was found to be 2.6%; in test [2], 0.76%.

In the case of `C[C@]12CC[C@@H]3c4ccc(O)cc4CC[C@H]3[C@@H]1CC[C@@]2(O)C#Cc1ccc(OCCCOCCCOCCCOCCCOCCCOCCCOc2ccc(C#C[C@]3(O)CC[C@H]4[C@@H]5CCc6cc(O)ccc6[C@H]5CC[C@@]43C)cc2)cc1`, the RBA in test [1] was determined as 1.5%; in test [2] it was 0.38%.

Regarding `C[C@]12CC[C@@H]3c4ccc(O)cc4CC[C@H]3[C@@H]1CC[C@@]2(O)C#Cc1ccc(OCCCOCCCOCCCOCCCOc2ccc(C#C[C@]3(O)CC[C@H]4[C@@H]5CCc6cc(O)ccc6[C@H]5CC[C@@]43C)cc2)cc1`, the RBA turned out to be 6.9% in test [1] and 0.003% in test [2].

For the molecule `C[C@]12CC[C@@H]3c4ccc(O)cc4CC[C@H]3[C@@H]1CC[C@@]2(O)C#Cc1ccc(OCCCOCCCOCCCOCCCOCCCOc2ccc(C#C[C@]3(O)CC[C@H]4[C@@H]5CCc6cc(O)ccc6[C@H]5CC[C@@]43C)cc2)cc1`, the RBA in test [1] stood at 2.3%; in test [2] it was 0.69%.

For the origin of these results see ChEMBL document CHEMBL1151900, “Steroidal bivalent ligands for the estrogen receptor: design, synthesis, characterization and binding affinities” (Bioorg Med Chem, 2009).
